Where “and” joins values, the source holds several entries; their conditions need not be identical. Identical values can stand only once. Like-named read-outs stand apart in the source and are kept apart here.

Experiment in all cases: P. falciparum proliferation assay (72 h, fluorescent DNA-intercalating dye)
Assay type in all cases: cell-based, Plasmodium falciparum

Experiment [1] deals with Dd2-PfATP4^T418N,P990R parasites. As to conditions: for Parasite proliferation (% of no-cipargamin control), MEAN: MEAN of 16 experiments. The procedure: (§1) For experiments with all other parasites, the effects of compounds of interest on parasite proliferation was measured in 96-well plates containing serial dilutions of the compounds in culture medium, with a fluorescent DNA-intercalating dye used to detect surviving parasites. The assays were initiated with erythrocytes infected with predominantly ring-stage parasites, and the starting parasitaemia and haematocrit were both 1%.

Experiment [2] deals with HCR1 parasites (highly cipargamin-resistant clone 1). As to conditions: for Parasite proliferation (% of no-cipargamin control), MEAN: MEAN of 16 experiments. The procedure: as §1
A further experiment relates to Dd2 parasites. As to conditions: for Parasite proliferation (% of no-cipargamin control), MEAN: MEAN of 16 experiments. The procedure: as §1
Another experiment concerns Dd2-Polδ parasites. The procedure: as §1
The test system of experiment [3] is Dd2-Polδ-PfATP4^G358S parasites. The procedure: as §1
[4] abbreviates: Dd2-PfATP4T418N,P990R, single experiments, source data of Fig. 2 (nM in Supplementary Table 1), read-out: IC50 values.
Where [5] appears, read: Plasmodium falciparum, DD2, Dd2-PfATP4T418N,P990R, MEAN, source data of Fig. 2, read-out: IC50 values, MEAN.
[6] abbreviates: Plasmodium falciparum, HCR1, MEAN, source data of Fig. 2, read-out: IC50 values, MEAN.
The mark [7] stands for this setting: Plasmodium falciparum, read-out: Mean IC50 value ± SEM for growth inhibition, HCR1, Supplementary Table 1, Set 1.
Where [8] appears, read: Plasmodium falciparum, DD2, read-out: IC50 values, MEAN, Dd2, MEAN, source data of Fig. 2.
[9] abbreviates: Dd2-Polδ, single experiments, source data of Fig. 2 (nM in Supplementary Table 1), read-out: IC50 values.
The mark [10] stands for this setting: Plasmodium falciparum, DD2, Dd2-Polδ, MEAN, source data of Fig. 2, read-out: IC50 values, MEAN.
[11] abbreviates: Dd2-Polδ-PfATP4G358S, single experiments, source data of Fig. 2 (nM in Supplementary Table 1), read-out: IC50 values.
Setting [12] is: Plasmodium falciparum, DD2, Dd2-Polδ-PfATP4G358S, MEAN, source data of Fig. 2, read-out: IC50 values, MEAN.
[13] abbreviates: Plasmodium falciparum, DD2, Dd2-Polδ-PfATP4G358S, single experiments, source data of Fig. 2 (nM in Supplementary Table 1), read-out: IC50 values.

The term IC50 denotes the point on the concentration scale where inhibition reaches its midpoint. Consider `C[C@H]1Cc2c([nH]c3cc(Cl)c(F)cc23)[C@@]2(N1)C(=O)Nc1ccc(Cl)cc12` [Cipargamin], for which the “Parasite proliferation (% of no-cipargamin control), MEAN” value is on record as 100.7 % of no-cipargamin control in experiment [1] (Dd2-PfATP4T418N,P990R, [Cipargamin] 0.195312 nM); 102.0 % of no-cipargamin control in experiment [1] (Dd2-PfATP4T418N,P990R, [Cipargamin] 0.390625 nM); 99.8 % of no-cipargamin control in experiment [1] (Dd2-PfATP4T418N,P990R, [Cipargamin] 0.78125 nM); 99.9 % of no-cipargamin control in experiment [1] (Dd2-PfATP4T418N,P990R, [Cipargamin] 1.5625 nM); 94.7 % of no-cipargamin control in experiment [1] (Dd2-PfATP4T418N,P990R, [Cipargamin] 3.125 nM); 78.8 % of no-cipargamin control in experiment [1] (Dd2-PfATP4T418N,P990R, [Cipargamin] 6.25 nM). Moreover, the “Parasite proliferation (% of no-cipargamin control), MEAN” value in experiment [1] (Dd2-PfATP4T418N,P990R, [Cipargamin] 25 nM) is 1.2 % of no-cipargamin control; in experiment [2] (HCR1, [Cipargamin] 100 nM) it was 98.5 % of no-cipargamin control; in experiment [2] (HCR1, [Cipargamin] 200 nM), 94.4 % of no-cipargamin control; in experiment [2] (HCR1, [Cipargamin] 400 nM), 91.8 % of no-cipargamin control; in experiment [2] (HCR1, [Cipargamin] 800 nM), 83.6 % of no-cipargamin control; in experiment [2] (HCR1, [Cipargamin] 1600 nM), 71.5 % of no-cipargamin control. Further, the “Parasite proliferation (% of no-cipargamin control), MEAN” value is on record as 44.9 % of no-cipargamin control in experiment [2] (HCR1, [Cipargamin] 3200 nM); 13.3 % of no-cipargamin control in experiment [2] (HCR1, [Cipargamin] 6400 nM); -0.564 % of no-cipargamin control in experiment [2] (HCR1, [Cipargamin] 25600 nM); 100.9 % of no-cipargamin control in the experiment with Dd2 parasites (Dd2, [Cipargamin] 0.195312 nM); 94.5 % of no-cipargamin control in the experiment with Dd2 parasites (Dd2, [Cipargamin] 0.390625 nM); 30.2 % of no-cipargamin control in the experiment with Dd2 parasites (Dd2, [Cipargamin] 0.78125 nM). In addition, the “Parasite proliferation (% of no-cipargamin control), MEAN” value in the experiment with Dd2 parasites (Dd2, [Cipargamin] 1.5625 nM) is given as 3.4 % of no-cipargamin control; in the experiment on Dd2 parasites (Dd2, [Cipargamin] 3.125 nM), 0.3 % of no-cipargamin control; in the experiment on Dd2 parasites (Dd2, [Cipargamin] 6.25 nM), 0.5 % of no-cipargamin control; with Dd2 parasites (Dd2, [Cipargamin] 25 nM), 0.0247 % of no-cipargamin control. The IC50 in experiment [1] (setting [4]) is 7.9 nM; in experiment [1] (setting [5]), 9.17 nM; in experiment [1] (Plasmodium falciparum, DD2, Dd2-PfATP4T418N,P990R, Supplementary Table 1, Set 1, read-out: Mean IC50 value ± SEM for growth inhibition), less than 10 nM; in experiment [2] (setting [6]), 2840 nM; in experiment [2] (setting [7]) it was 2840 ± 190 nM; with Dd2 parasites (setting [8]) it was 0.68 nM. The IC50 with Dd2-Polδ parasites (setting [9]) was 1.4 nM; in the experiment on Dd2-Polδ parasites (setting [10]) it was 1.43 nM; in the experiment on Dd2-Polδ parasites (Plasmodium falciparum, DD2, parental Dd2-Polδ, paired with MMV665949-selected Culture 1, n = 3, read-out: IC50 value), 0.57 ± 0.02 nM; in experiment [3] (setting [11]), 1140 nM and 1420 nM and 1580 nM and 1640 nM and 1670 nM and 1510 nM; in experiment [3] (setting [12]) it was 1420 nM; in experiment [3] (setting [13]), 980 nM. Moreover, the “Parasite proliferation (% of no-cipargamin control)” value in experiment [2] (HCR1, [Cipargamin] 100 nM, single experiments 1-16) is 100.9 % of no-cipargamin control and 100.0 % of no-cipargamin control and 87.1 % of no-cipargamin control and 88.2 % of no-cipargamin control. In the experiment on Dd2 parasites (Dd2, Supplementary Table 1, Set 1), the “Mean IC50 value ± SEM for growth inhibition” value is listed as “subnanomolar”.
Consider `C[C@H]1[C@@H](O)O[C@@H]2O[C@@]3(C)CC[C@H]4[C@H](C)CC[C@@H]1[C@@]24OO3` [Dihydroartemisinin], for which the IC50 in experiment [1] (Plasmodium falciparum, DD2, read-out: Dihydroartemisinin IC50 values, Dd2-PfATP4T418N,P990R, MEAN) was 2.44 nM; in experiment [1] (Plasmodium falciparum, DD2, read-out: Dihydroartemisinin IC50 values, Dd2-PfATP4T418N,P990R, single experiments), 2.1 nM; in experiment [1] (read-out: Dihydroartemisinin IC50 values, Dd2-PfATP4T418N,P990R, single experiments), 2.01 nM and 2.76 nM and 2.9 nM; in experiment [2] (Plasmodium falciparum, read-out: Dihydroartemisinin IC50 values, HCR1, MEAN), 1.55 nM; in experiment [2] (read-out: Dihydroartemisinin IC50 values, HCR1, single experiments), 1.37 nM and 2.01 nM and 1.76 nM; in the experiment with Dd2 parasites (Plasmodium falciparum, DD2, read-out: Dihydroartemisinin IC50 values, Dd2, MEAN), 2.17 nM. Moreover, the IC50 in the experiment with Dd2 parasites (Plasmodium falciparum, DD2, read-out: Dihydroartemisinin IC50 values, Dd2, single experiments) is 1.79 nM; with Dd2 parasites (read-out: Dihydroartemisinin IC50 values, Dd2, single experiments), 1.66 nM and 2.87 nM and 2.36 nM; in the experiment on Dd2-Polδ parasites (Plasmodium falciparum, DD2, read-out: Dihydroartemisinin IC50 values, Dd2-Polδ, MEAN), 2.15 nM; with Dd2-Polδ parasites (Plasmodium falciparum, DD2, read-out: Dihydroartemisinin IC50 values, Dd2-Polδ, single experiments), 2.08 nM; with Dd2-Polδ parasites (read-out: Dihydroartemisinin IC50 values, Dd2-Polδ, single experiments) it was 2.37 nM and 1.58 nM and 2.55 nM; in experiment [3] (Plasmodium falciparum, DD2, read-out: Dihydroartemisinin IC50 values, Dd2-Polδ-PfATP4G358S, MEAN), 2.58 nM. For the same molecule, the IC50 is 2.3 nM in experiment [3] (Plasmodium falciparum, DD2, read-out: Dihydroartemisinin IC50 values, Dd2-Polδ-PfATP4G358S, single experiments); 2.08 nM and 3.3 nM and 2.66 nM in experiment [3] (read-out: Dihydroartemisinin IC50 values, Dd2-Polδ-PfATP4G358S, single experiments).
On to `N#Cc1cc(NC(=O)[C@H]2c3ccccc3C(=O)N(CC(F)(F)F)[C@@H]2c2cccnc2)ccc1F` [(+)-SJ733], for which the IC50 was 359 nM and 293 nM and 333 nM and 337 nM in experiment [1] (setting [4]); 331 nM in experiment [1] (setting [5]); 334 nM in experiment [1] (Plasmodium falciparum, DD2, Dd2-PfATP4T418N,P990R, single experiments, source data of Fig. 2 (nM in Supplementary Table 1), read-out: IC50 values); 331 ± 11 nM in experiment [1] (Plasmodium falciparum, DD2, read-out: Mean IC50 value ± SEM for growth inhibition, Dd2-PfATP4T418N,P990R, Supplementary Table 1, Set 1); 21500 nM in experiment [2] (setting [6]); 21500 nM in experiment [2] (setting [7]). The half-inhibitory concentration (IC50) in the experiment on Dd2 parasites (Plasmodium falciparum, DD2, read-out: IC50 values, Dd2, single experiments, source data of Fig. 2 (nM in Supplementary Table 1)) is 58.3 nM; with Dd2 parasites (setting [8]) it was 59.6 nM; in the experiment on Dd2 parasites (Plasmodium falciparum, DD2, read-out: Mean IC50 value ± SEM for growth inhibition, Dd2, Supplementary Table 1, Set 1) it was 60 ± 2 nM; in the experiment on Dd2 parasites (read-out: IC50 values, Dd2, single experiments, source data of Fig. 2 (nM in Supplementary Table 1)), 66.6 nM and 57.7 nM and 59 nM and 56.4 nM; in the experiment with Dd2-Polδ parasites (setting [9]), 30.9 nM and 37.1 nM and 51.3 nM; in the experiment on Dd2-Polδ parasites (setting [10]), 40.7 nM. Further, the IC50 is 43.6 nM with Dd2-Polδ parasites (Plasmodium falciparum, DD2, Dd2-Polδ, single experiments, source data of Fig. 2 (nM in Supplementary Table 1), read-out: IC50 values); 11800 nM and 8860 nM and 8730 nM in experiment [3] (setting [11]); 9070 nM in experiment [3] (setting [12]); 6890 nM in experiment [3] (setting [13]); 9070 nM in experiment [3] (Plasmodium falciparum, DD2, SET-2, read-out: Mean IC50 value ± SEM for growth inhibition, Dd2-Polδ-PfATP4G358S, Supplementary Table 1, Set 2).

For the origin of these results see article PMC9525273 (Nature Communications, 2022).
